Measurements as given in ChEMBL document CHEMBL4316591, “Optimization of Pan-Pim Kinase Activity and Oral Bioavailability Leading to Diaminopyrazole (GDC-0339) for the Treatment of Multiple Myeloma” (J Med Chem, 2019).
In brackets after ≈: the same amount, converted by molar mass.

How the values were obtained:
physchem = conditions: buffer, pH 6.5
in vivo [1] = conditions: Sprague-Dawley, rat, iv, 1 mg/kg
in vivo [2] = conditions: Sprague-Dawley, rat, po, 5 mg/kg
[3] = Oral bioavailability in mouse at 100 mg/kg by LC-MS/MS analysis; assay type: ADME, organism-based; conditions: in vivo
[4] = Volume of distribution at steady state in Sprague-Dawley rat at 1 mg/kg, iv by LC-MS/MS analysis; assay type: ADME, organism-based; conditions: in vivo, read-out: Vdss
[5] = Half life in Sprague-Dawley rat at 1 mg/kg, iv by LC-MS/MS analysis; assay type: ADME, organism-based; conditions: in vivo
[6] = Total clearance in mouse at 1 mg/kg, iv by LC-MS/MS analysis; assay type: ADME, organism-based; conditions: in vivo
[7] = Oral bioavailability in mouse at 5 mg/kg by LC-MS/MS analysis by LC-MS/MS analysis; assay type: ADME, organism-based; conditions: in vivo
[8] = Total clearance in cynomolgus monkey at 0.5 mg/kg, iv by LC-MS/MS analysis; assay type: ADME, organism-based, Macaca fascicularis; conditions: in vivo
[9] = Oral bioavailability in Sprague-Dawley rat at 100 mg/kg by LC-MS/MS analysis; assay type: ADME, organism-based; conditions: in vivo
[10] = Oral bioavailability in cynomolgus monkey at 1 mg/kg by LC-MS/MS analysis; assay type: ADME, organism-based, Macaca fascicularis; conditions: in vivo
[11] = Oral bioavailability in cynomolgus monkey at 100 mg/kg by LC-MS/MS analysis; assay type: ADME, organism-based, Macaca fascicularis; conditions: in vivo
[12] = Volume of distribution at steady state in mouse at 1 mg/kg, iv by LC-MS/MS analysis; assay type: ADME, organism-based; conditions: in vivo, read-out: Vdss
[13] = Half life in mouse at 1 mg/kg, iv by LC-MS/MS analysis; assay type: ADME, organism-based; conditions: in vivo
[14] = Half life in cynomolgus monkey at 0.5 mg/kg by LC-MS/MS analysis; conditions: in vivo
[15] = Volume of distribution at steady state in cynomolgus monkey at 0.5 mg/kg by LC-MS/MS analysis; conditions: in vivo, read-out: Vdss

solubility thermodynamic (physchem) [µM]	clearance (in vivo [1]) [mL/min/kg]	bioavailability (in vivo [2]) [%]	SMILES	other results
88 (≈ 40.9 µg/mL)			Cn1ncc(NC(=O)c2nc(-c3c(F)cccc3F)sc2N)c1C1CCC(N)C(F)CC1 (stereo not drawn)	
< 1	7	38	Cn1ncc(NC(=O)c2nc(-c3c(F)cccc3F)sc2N)c1N1CCCC(O)CC1 (stereo not drawn)	
62 (≈ 29.6 µg/mL)	2	3	CO[C@H]1C[C@H](N)CCN(c2c(NC(=O)c3nc(-c4c(F)cccc4F)sc3N)cnn2C)C1	
16 (≈ 7.37 µg/mL)	3	24	Cn1ncc(NC(=O)c2nc(-c3c(F)cccc3F)sc2N)c1[C@@]12CC[C@@H](N)[C@@H](CC1)O2	
1 (≈ 0.53 µg/mL)			Cn1ncc(NC(=O)c2nc(-c3c(F)cccc3F)sc2N)c1N1CCC[C@H](NCC(F)(F)F)CC1	
67 (≈ 31.2 µg/mL)	8	33	Cn1ncc(NC(=O)c2nc(-c3c(F)cccc3F)sc2N)c1N1CC[C@@H](N)[C@H](F)CC1	bioavailability [3]: 34%; Vd [4]: 0.9 L/kg; half-life [5]: 1.8 h; clearance [6]: 135 mL/min/kg; bioavailability [7]: 11%; clearance [8]: 34 mL/min/kg; bioavailability [9]: 28%; bioavailability [10]: 35%; bioavailability [11]: 60%; Vd [12]: 6.8 L/kg; half-life [13]: 0.9 h; half-life [14]: 1.8 h; Vd [15]: 5 L/kg

SMILES	solubility thermodynamic (physchem) [µM]	clearance (in vivo [1]) [mL/min/kg]	bioavailability (in vivo [2]) [%]	other results
Cn1ncc(NC(=O)c2nc(-c3c(F)cccc3F)sc2N)c1N1CCC[C@H](NCC(F)F)CC1	1 (≈ 0.512 µg/mL)			
